Patent US20110086762A1, “4'4'-Dioxaspiro-Spirocyclically Substituted Tetramates” (Bayer CropScience AG, priority 2008, published 2011)

Columns and labels:
Myzus persicae = Myzus persicae test MYZUPE (bell pepper plants); assay type: in vivo, green peach aphid (Myzus persicae)
Description: (§1) Solvent: 7 parts by weight of dimethylformamide Emulsifier: 2 parts by weight of alkylaryl polyglycol ether To produce a suitable preparation of active compound, 1 part by weight of active compound is mixed with the stated amounts of solvent and emulsifier, and the concentrate is diluted with emulsifier-containing water to the desired concentration. If the addition of ammonium salts, penetrant or ammonium salts and penetrant is required, these are pipetted in at a concentration of 1000 ppm after dilution of the respective finished solution of the preparation. Bell pepper plants (Capsicum annuum) which are heavily infested by the green peach aphid (Myzus persicae) are treated by spraying with the active compound preparation of the desired concentration. After the desired period of time, the kill in % is determined. Here, 100% means that all of the animals have been killed; 0% means that none of the animals have been killed.

Aphis gossypii [1] = experiment: Aphis gossypii test, APHIGO spray treatment (cotton leaves); assay type: in vivo, cotton aphid (Aphis gossypii); conditions: active compound conc. 0.8 ppm
Description: as §1, with “the preparation. Cotton leaves (Gossypium hirsutum) which are” for “the preparation. Bell pepper plants (Capsicum annuum) which are”, “by the cotton aphid (Aphis” for “by the green peach aphid (Myzus”, “cotton aphid (Aphis gossypii) are sprayed” for “peach aphid (Myzus persicae) are treated”, “gossypii) are sprayed with an” for “persicae) are treated by spraying with the”, “sprayed with an active compound” for “spraying with the active compound”, “of the aphids have been” for “of the animals have been”

Tetranychus urticae [2] = experiment: Tetranychus test, OP-resistant (bean plants); assay type: in vivo, greenhouse red spider mite (Tetranychus urticae); conditions: TETRUR, active compound conc. 4 ppm
Description: Solvent: 7 parts by weight of dimethylformamide Emulsifier: 2 parts by weight of alkylaryl polyglycol ether To produce a suitable preparation of active compound, 1 part by weight of active compound is mixed with the stated amounts of solvent and emulsifier, and the concentrate is diluted with emulsifier-containing water to the desired concentration. If the addition of ammonium salts, penetrant or ammonium salts and penetrant is required, these are pipetted in at a concentration of 1000 ppm after dilution of the respective finished solution of the preparation. Bean plants (Phaseolus vulgaris) which are heavily infested by all stages of the greenhouse red spider mite (Tetranychus urticae) are treated by spraying with the active compound preparation of the desired concentration. After the desired period of time, the effect in % is determined. Here, 100% means that all of the spider mites have been killed; 0% means that none of the spider mites have been killed.

[3] = Penetration of active compounds through enzymatically isolated cuticles of apple leaves; assay type: in vitro ADME, apple trees of the Golden Delicious variety; conditions: apple leaf cuticles, 20° C., 60% rh, average of 8 to 10 measurements
Text: Boosting of penetration into the plant by ammonium salts or phosphonium salts, and synergistic boosting of penetration into the plant by ammonium/phosphonium salts in combination with penetration promoters This test measured the penetration of active compounds through enzymatically isolated cuticles of apple leaves. The leaves used were cut in the fully developed state from apple trees of the Golden Delicious variety. The cuticles were isolated as follows: • first of all, leaf discs labelled on the underside with dye and formed by punching were filled by means of vacuum infiltration with a pectinase solution (0.2% to 2% strength) buffered to a pH of between 3 and 4, • sodium azide was then added and • the leaf discs thus treated were left to stand until the original leaf structure broke down and the non-cellular cuticle underwent detachment. After that, only those cuticles from the top leaf sides that were free from stomata and hairs were used further. They were washed a number of times in alternation with water and with a buffer solution, pH 7. […] Penetration was determined by applying 10 μl of the spray liquor of the composition below to the outer side of each of the cuticles. […] At regular intervals, samples were taken using an autosampler, and the amount of active compound was determined using HPLC. […]

Tetranychus urticae [4] = experiment: Example C-3: plot trial on cotton 'Fibermax 977' against Tetranychus urticae; assay type: in vivo; conditions: 9 g a.i./ha, standard (EC 018), two applications 8 days apart
Description: In plots of a size of 15 m^2, cotton plants of the cultivar “Fibermax 977” are treated in three replications against Tetranychus urticae using a pressure-operated knapsack sprayer (4 bar). Here, the active compound A.5 is applied as SC050 and SL050 at the stated application rate in a tank mix of 1 g/l of ammonium sulphate and 1 g/l of a.i. rapeseed oil methyl ester EW 500 and the standard abamectin (EC 018) using an application rate of in each case 300 l of water/ha. Two applications are carried out at an interval of 8 days. Evaluation is carried out 3, 7, 11 and 15 days after the first application by scoring the kill of the spider mites on the leaves.

Aphis gossypii [5] = experiment: Example C-2: plot trial on cotton 'Fibermax' against Aphis gossypii; assay type: in vivo; conditions: 105 g a.i./ha, standard (SC 050)
Description: In plots of a size of 10 m^2, cotton plants of the cultivar “Fibermax” are treated in three replications against Aphis gossypii using a pressure-operated knapsack sprayer (2.5 bar). Here, the active compound A.5 is applied as SC050 and SL050 at the stated application rate in a tank mix of 1 g/l of ammonium sulphate and 1 g/l of a.i. rapeseed oil methyl ester EW 500 in comparison to the standard imidacloprid (SC 050) using an application rate of 300 l of water/ha. Evaluation is carried out 3, 6, 9, 13 and 17 days after the application by counting the number of live animals on the leaves. Subsequently, the efficacy in percent is calculated according to Henderson and Tilton.

## Cc1cc(Cl)cc(C)c1C1=C(O)C2(CCC3(CC2)OCCO3)NC1=O [A.4]
Myzus persicae; active compound conc. 10 ppm
  % effect after 7 d: 100%

## Cc1cc(C)c(C2=C(O)C3(CCC4(CC3)OCCO4)NC2=O)c(C)c1.[K+] [Example A.1]
Myzus persicae; active compound conc. 0.8 ppm
  % effect after 7 d: 75%

## Cc1cc(C)c(C2=C(O)C3(CCC4(CC3)OCCO4)NC2=O)c(C)c1 [A.3]
Myzus persicae; active compound conc. 0.8 ppm
  % effect after 7 d: 75%
Aphis gossypii [1]
  % effect after 7 d: 75%

## Cc1cc(Cl)cc(C)c1C1=C(O)C2(CCC3(CC2)OCCO3)NC1=O [A.6]
Myzus persicae; active compound conc. 10 ppm
  % effect after 7 d: 95%

## Cc1cc(Cl)cc(C)c1C1C(=O)NC2(CCC3(CC2)OCCO3)C1=O (stereo not shown) [Ex. I-1-a-4, 8,8′-ethylenedioxy-3-[(2,6-dimethyl-4-chloro)-phenyl]-1-azaspiro[4,5]-decane-2,4-dione]
Myzus persicae; active compound conc. 10 ppm
  % effect after 7 d: 75%

## Cc1cc(C)c(C2=C(O)C3(CCC4(CC3)OCCO4)NC2=O)c(C)c1 [A.2]
Myzus persicae; active compound conc. 0.8 ppm
  % effect after 7 d: 90%
Tetranychus urticae [2]
  % effect after 7 d: 70%

## Cc1cc(Cl)cc(C)c1C1=C(O)C2(CCC3(CC2)OCCO3)NC1=O [Example A.5]
[3]; SC 050 + RME (1 g/l) + AS (1 g/l)
  Penetration after 24 h: 3%
[3]; SL 050 + RME (1 g/l) + AS (1 g/l)
  Penetration after 24 h: 7%

## abamectin
Tetranychus urticae [4]; 3 d after first application
  Effect Abbott (%) Tetranychus urticae 3 d: 49.3%
Tetranychus urticae [4]; 7 d after first application
  Effect Abbott (%) Tetranychus urticae 7 d: 27.2%
Tetranychus urticae [4]; 11 d after first application
  Effect Abbott (%) Tetranychus urticae 11 d: 5.8%
Tetranychus urticae [4]; 15 d after first application
  Effect Abbott (%) Tetranychus urticae 15 d: 40.7%

## O=[N+]([O-])NC1=NCCN1Cc1ccc(Cl)nc1 [imidacloprid]
Aphis gossypii [5]; 3 d
  Efficacy (% H + T) Aphis gossypii 3 d: 78.1%
Aphis gossypii [5]; 6 d
  Efficacy (% H + T) Aphis gossypii 6 d: 84.1%
Aphis gossypii [5]; 9 d
  Efficacy (% H + T) Aphis gossypii 9 d: 83.7%
Aphis gossypii [5]; 13 d
  Efficacy (% H + T) Aphis gossypii 13 d: 82.0%
Aphis gossypii [5]; 17 d
  Efficacy (% H + T) Aphis gossypii 17 d: 64.7%
